Test results as given in patent US20110189095A1, “CRKL TARGETING PEPTIDES” (The Board of Regents, of the University of Texas System, priority 2008, published 2011).
Ends that are not written are not given here.

Columns and labels:
[1] = test system: CRKL secretion; assay: CRKL secretion inhibition study (immunoprecipitation from serum-free medium); assay type: cell-based; conditions: cells incubated with compound in serum-free medium for 9 hours
Method: Cells were synchronized for 24-48 hours in RPMI serum-free medium followed by a spin and filtration through a 0.22 μm filter, and pre-absorbed to control antibodies. An equal volume of PBS was added to the recovered supernatant prior to immunoprecipitating with the appropriate antibodies. Brefeldin A, glybenclamide, and thapsigargin were used for secretion inhibition studies. Cells were incubated with the compounds in serum-free medium for 9 hours prior to immunoprecipitation with the appropriate antibodies. No detergents were used in the immunoprecipitation studies. By using the methodology described above, CRKL is found in a free soluble state and not in vesicles.

[2] = test system: human prostate cancer xenografts (DU145-derived); assay: Therapy in tumor-bearing mice (tumor volume); assay type: in vivo, nude mice; conditions: equimolar amounts, systemically administered, vs untreated or vehicle
Excerpt: Finally, a pilot pre-clinical trial that included four cohorts of size-matched tumor-bearing mice was designed and conducted (FIG. 11). Animals received the following reagents: (i) the synthetic PSI domain-mimic peptide, (ii) the synthetic PSI domain-mimic peptide linked to a pro-apoptotic peptidomimetic (Arap et al., 2004; Ellerby et al., 1999; Kolonin et al., 2004; Zurita et al., 2004) in order to induce targeted apoptosis upon receptor-mediated internalization, (iii) the synthetic pro-apoptotic peptidomimetic alone, or (iv) vehicle alone. All peptides or peptidomimetics were administered at equimolar concentrations.
DU145 tumor-bearing mice were size-matched and divided into individual cohorts (n=4 mice per group). The tumor-homing peptide […] (SEQ ID NO:1) was synthesized fused with the proapoptotic motif D(KLAKLAK)2. Unconjugated peptide […] (SEQ ID NO:1) or D(KLAKLAK)2 served as controls. The synthetic peptides were systemically administered and tumor volumes measured as described (Arap et al., 1998; Arap et al., 2004).

[3] = target: T1, rCRKL-SH3 (C) domain (Homo sapiens, UniProt P46109); assay: Peptide binding assay with recombinant His-tag proteins (ELISA); conditions: peptide coated on microtiter plates
T1 construct: cDNAs corresponding to each of the SH domains were PCR-amplified and cloned into the Sac I and Xho I restriction sites; His-tag; made in house; host or cells: E. coli BL21
Method: (§1) Synthetic tumor-homing peptide ([…]; SEQ ID NO:1) or PSI-derived peptide (NSTFLQEGMPTSA; SEQ ID NO:23) were coated on microtiter plates followed by blocking, and washing. The following recombinant His-tag proteins were added to the coated plates: rCRKL, rCRKL-SH2 domain, rCRKL-SH3 (N) domain, and rCRKL-SH3 (C) domain. An unrelated control protein (α2-Heremans-Schmid glycoprotein; AHSG) served as a negative control. The mixtures were incubated, washed, and labeled with the appropriate antibodies. Secondary antibodies conjugated to horse-radish peroxidase (HRP) were added followed by adding TMB substrate (Calbiochem), and analyzed by an automated ELISA reader (Bio-Tek). To determine the inhibitory activity of the tumor-homing peptide, the PSI-derived peptide, or the phage clone displaying the corresponding tumor-homing peptide were incubated with the rCRKL-SH3 (C) domain. Unrelated cyclic peptide sequences and insertless phage (fd-tet) served as negative controls. The admixtures were incubated and added to wells coated with the tumor-homing peptide. After incubation, the wells were washed, labeled with the appropriate antibodies, and processed as above.

[4] = target: T2, rCRKL (Homo sapiens, UniProt P46109); assay: as above; conditions: peptide coated on microtiter plates
T2 construct: The open reading frame of full-length CRKL cDNA (Invitrogen) was PCR-amplified and cloned in a pET28a (Novagen) expression vector; His-tag; made in house; host or cells: E. coli BL21
Method: as §1

[5] = target: T3, rCRKL-SH3 (N) domain (Homo sapiens, UniProt P46109); assay: as above; conditions: peptide coated on microtiter plates
T3 construct: cDNAs corresponding to each of the SH domains were PCR-amplified and cloned into the Sac I and Xho I restriction sites; His-tag; made in house; host or cells: E. coli BL21
Method: as §1

[6] = target: T1, rCRKL-SH3 (C) domain; assay: Inhibition of rCRKL-SH3 (C) domain binding to coated tumor-homing peptide; conditions: inhibitor pre-incubated with rCRKL-SH3 (C)
Method: as §1

[7] = test system: KS1767 and DU145 human tumor xenografts and EF43-FGF4 mouse mammary carcinoma; assay: In vivo homing of targeted or control phage in mice bearing different tumor types; conditions: systemic administration; KS1767, DU145 and EF43-FGF4 models
Method: The tumor targeting attributes of CRKL-binding phage in tumor-bearing mice was evaluated next. First, phage constructs displaying either the selected CRKL-binding peptide or a panel of control (mutant or scrambled) peptides were designed and produced. Phage clones were tested in human tumor xenografts (Kaposi sarcoma KS1767 cells and prostate carcinoma DU145 cells) and an isogenic mouse tumor model (EF43-FGF4 mammary carcinoma).
In vivo targeting experiments with phage were performed as described (Hajitou et al., 2006; Arap et al., 1998; Arap et al., 2004; Kolonin et al., 2004; Marchio et al., 2004). Animals used in experiments were: Male nude mice bearing human DU145 xenografts or female nude mice with human Kaposi sarcoma KS1767-derived xenografts subcutaneously and immunocompetent Balb/c female mice bearing EF43-FGF4-derived breast tumors orthotopically in the mammary fat pad. Briefly, mice bearing tumors (˜8 mm) were anesthetized and injected intravenously via tail vein with 5×10^10 T.U. per mouse of wild-type […] (SEQ ID NO:1)-phage, or negative controls: fd-tet phage (insertless) and scrambled […] (SEQ ID NO:26)-phage, […] (SEQ ID NO:27)-phage, […] (SEQ ID NO:29)-phage, […] (SEQ ID NO:30)-phage or mutants […] (SEQ ID NO:25)-phage and […] (SEQ ID NO:28)-phage. Cohorts of two mice with size-matched tumors received each set of phage clones. After 24 hours, tumors were dissected from each mouse and phage recovered by bacterial infection and normalized by weight of tissue. The experiments were repeated twice for each tumor model. […] The fd phage served a negative control and the RGD-4C (Hajitou et al., 2006; Arap et al., 1998) served as a positive control. Only minimal background apoptosis (<1% of the total cells) were detected by TUNEL staining (Promega) on paraffin-embedded tumor tissue sections.

[8] = test system: DU145 cells; assay: Peptide internalization assay (WST-1 cell viability, annexin-V staining); assay type: cell-based, human
Method: The internalization capability of the tumor-homing peptide fused through a glycinylglycine bridge to a pro-apoptotic sequence was tested as described Arap et al., 2004; Ellerby et al., 1999; Kolonin et al., 2004; Zurita et al., 2004). The conjugated tumor-homing peptide, […] (SEQ ID NO:67)-D(KLAKLAK)2 or the untargeted control peptide D(KLAKLAK)2 were synthesized and increasing equimolar peptide concentrations were added to the DU145 cells. Cell viability was assayed by the WST-1 reagent (Roche) and annexin-V staining for apoptosis (Zurita et al., 2004; Cardo-Vila et al., 2003). For tumor-homing phage localization studies, cells were incubated with 10^9 T.U. tumor-homing ([…]; SEQ ID NO:1) or a negative control (fd-tet) phage for 6 and 24 hours. Wells were washed with 20 mM glycine to remove non-specific cell surface bound phage and then fixed with 4% paraformaldehyde. The non-permeabilized cells were incubated with rabbit anti-fd bacteriophage antibody (Sigma) for 2 hours at room temperature followed by 1 hour incubation with Cy3-labeled anti-rabbit IgG antibody (Jackson ImmunoResearch). Cells were again fixed with 4% paraformaldehyde and mounted in the presence of DAPI (Vector Laboratories) and images were acquired with an Olympus fluorescence microscope.

[9] = target: CRKL binding to β1 integrin (Homo sapiens, UniProt P46109); assay: Protein-protein interaction between CRKL and β1 integrin, inhibition assay
Method: Phage binding assays on purified proteins were carried out as described (Giordano et al. 2001). Recombinant proteins were coated on microtiter wells as previous described (Cardo-Vila et al., 2003; Smith and Scott, 1993). Briefly, proteins were immobilized on microtiter wells overnight at 4° C. 50 μl of 1 μg/ml in PBS. Wells were washed twice with PBS, blocked with PBS containing 3% BSA for 2 hours at room temperature, and incubated with 10^9 T.U. wild-type tumor-homing phage ([…]; SEQ ID NO:1), scrambled phage ([…] (SEQ ID NO:26), […] (SEQ ID NO:27), […] (SEQ ID NO:29), […] (SEQ ID NO:30)), mutant phage ([…] (SEQ ID NO:25), […] (SEQ ID NO:28)), PSI-derived cyclic phage (CNSTFLQEGMPTSAC; SEQ ID NO:23) or fd-tet phage in 50 μl of PBS containing 1.5% BSA. After 1 hour at room temperature, wells were washed ten times with PBS and phage were recovered by bacterial infection. ELISA with polyclonal anti-CKRL confirmed the presence and concentration of the CKRL recombinant proteins on the wells. […] After 3 hours, binding of CKRL to integrins was detected by using an anti-CKRL antibody followed by an HRP-conjugated anti-rabbit IgG. […]

CRKL binding to β1 integrin, sequence (P46109 whole entry): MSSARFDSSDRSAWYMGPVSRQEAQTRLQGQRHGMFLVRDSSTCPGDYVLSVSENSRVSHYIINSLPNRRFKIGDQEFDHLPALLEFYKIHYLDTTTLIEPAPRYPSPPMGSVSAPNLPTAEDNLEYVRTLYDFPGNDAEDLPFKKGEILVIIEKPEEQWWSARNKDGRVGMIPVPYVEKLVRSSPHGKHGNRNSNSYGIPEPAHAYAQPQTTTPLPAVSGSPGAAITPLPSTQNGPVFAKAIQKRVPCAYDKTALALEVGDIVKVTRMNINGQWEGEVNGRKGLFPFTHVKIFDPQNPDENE
T1 sequence (P46109 235-296 limits assumed): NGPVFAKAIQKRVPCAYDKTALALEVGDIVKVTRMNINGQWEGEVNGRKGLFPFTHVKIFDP
T2 sequence (P46109 whole entry): as the sequence (P46109 whole entry) above
T3 sequence (P46109 123-183 limits assumed): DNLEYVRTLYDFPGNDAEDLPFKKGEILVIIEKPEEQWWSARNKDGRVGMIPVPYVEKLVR

Compound: C[C@H]1CCC/C=C/[C@@H]2C[C@H](O)C[C@H]2[C@H](O)/C=C/C(=O)O1 [brefeldin A]
- CRKL secretion / release [1]: do not appear to inhibit

Compound: COc1ccc(Cl)cc1C(=O)NCCc1ccc(S(=O)(=O)NC(=O)NC2CCCCC2)cc1 [glybenclamide]
- CRKL secretion / release [1]: does prevent

Compound: C/C=C(/C)C(=O)O[C@H]1C(C)=C2[C@H]([C@@H]1OC(=O)CCCCCCC)[C@@](C)(OC(C)=O)C[C@H](OC(=O)CCC)[C@@]1(O)[C@H]2OC(=O)[C@@]1(C)O [thapsigargin]
- CRKL secretion / release [1]: do not appear to inhibit

Compound: D(KLAKLAK)2 [reference compound]
- tumor growth / tumor volume [2]: no differences in tumor volume

Compound: NSTFLQEGMPTSA (listed as Homo sapiens) [synthetic peptide derived from the native PSI domain of β1 integrin, residues 50 to 62]
- binding to rCRKL-SH3 (C) domain [3]: bound
- binding to rCRKL [4]: bound
- binding to rCRKL-SH3 (N) domain [5]: bound
- inhibition of binding of the tumor-homing peptide to rCRKL-SH3 (C) domain [6]: inhibited

Compound: YRCETDSPHEFHLWNTFCAM
- tumor homing / tumor targeting [7]: no tumor targeting activity

Compound: YRCETDSPHEFHLWNTMCAF
- tumor homing / tumor targeting [7]: no tumor targeting activity

Compound: YRCTLNSAFFWEDMTHECHA
- tumor homing / tumor targeting [7]: no tumor targeting

Compound: YRCTLNSPAAAEDMTHECHA
- tumor homing / tumor targeting [7]: no tumor targeting activity

Compound: YRCTLNSPFFWEDMTHECHAGG (SEQ ID NO:67)-D(KLAKLAK)2
- programmed cell death (annexin-V staining) ([8]; DU145 cells): Programmed cell death was confirmed
- internalization ([8]; DU145 cells, measured by cell viability and annexin-V): enables internalization
- cell killing (cell viability, WST-1) ([8]; increasing equimolar concentrations, control D(KLAKLAK)2): Targeted cell killing relative to controls
- tumor growth / tumor volume [2]: Markedly reduced tumor growth
- tumor growth / tumor volume ([2]; listed as targeted pro-apoptotic peptidomimetic): significantly inhibited

Compound: YRECTDSPHEFHLWNTMCAF
- tumor homing / tumor targeting [7]: no tumor targeting

Compound: YRFCTSPFHEWHLENTDMCA
- tumor homing / tumor targeting [7]: no tumor targeting

Compound: gst-PSI: recombinant gst fusion protein of the entire PSI domain of β1 integrin (CLKANAKSCGECIQAGPNCGWCTNSTFLQEGMPTSARCDDLEALKKKGC; cysteine pairing not given here; also: N-terminal GST fusion, not written)
- inhibition of CRKL binding to β1 integrin ([9]; up to 800 ηm): concentration-dependent inhibition
- IC50 ([9]; wells coated with α5β1 integrin): 20 nM
